# Data reported in patent US11680061B2, “Crystal forms C and E of pyrazin-2(1H)-one compound and preparation method therefor” (ZHANGZHOU PIEN TZE HUANG PHARMACEUTICAL CO., LTD., priority 2019, dated 2023).
# Experiments:
# [1] = Pharmacokinetic evaluation in mice, single intragastric administration; type: in vivo, CD-1 mice (male)
# Description: Experimental Purposes: To Test the Pharmacokinetics of the Compound in Mice
# CD-1 mice (male), vehicle (0.5% (w/v) methylcellulose 0.5% (v/v) Tween 80 aqueous solution), trifluoroacetate salt of compound 0027.
# The vehicle was 0.5% (w/v) methylcellulose and 0.5% (v/v) Tween 80 aqueous solution, and the formulation was prepared according to the following procedure: […]
# Preparation of formulation for intragastric administration: […]
# Animals in groups 1 and 2 were given 5 mg/mL and 30 mg/mL compound by single intragastric administration, respectively, with a dose volume of 10 mL/kg.
# The animals were weighed before administration, and the administration volume was calculated according to the body weight.
# Whole blood samples (30 μL) were collected at specified times (0.25, 0.5, 1, 2, 4, 6, 8, 24 hours) by saphenous vein collection and the actual time of collection was recorded in the test record. The acceptable error for the collection time points was ±1 minute for time points within 1 hour of administration and ±5% of the theoretical time for other time points.
# All blood samples were immediately transferred to labeled commercial centrifuge tubes containing K2-EDTA. […] And the pharmacokinetic parameters were calculated, experimental result: See Table 5.
# [2] = Hygroscopicity study by dynamic vapor sorption (DVS); type: physicochemical; details: 25° C. and 80% RH
# Description: Dynamic Vapor Sorption (DVS) Method in the Present Disclosure
# Instrument model: SMS DVS Advantage dynamic vapor sorption instrument
# Test conditions: samples (10 mg to 15 mg) were placed in a DVS sample tray for testing.
# Detailed DVS parameters are as follows:
# Balance: dm/dt=0.01%/min (shortest: 10 min, longest: 180 min)
# Drying: 120 min under 0% RH
# RH (%) test step range: 0% to 90% to 0%
# The evaluation classification of hygroscopicity was as follows:
# 10 to 15 mg of the crystal form C of the compound of formula (II) was placed in the DVS sample tray for testing.
# 10 to 15 mg of the crystal form E of the compound of formula (II) was placed in the DVS sample tray for testing.
"Tlast ([1]; CD-1 mice, intragastric, 300 mpk, plasma) [h]",pharmacokinetic index in mice ([1]; conclusion in words),Classification of hygroscopicity [2],"ΔW, hygroscopic weight gain [2] [%]",SMILES
24.0,good,–,–,COc1cc(OC)c(Cl)c(-c2nc(-c3nc(-c4cn(C)nc4C)cnc3N)cn(C)c2=O)c1
–,–,slightly hygroscopic,1.1,COc1cc(OC)c(Cl)c(-c2nc(-c3nc(-c4cn(C)nc4C)cnc3N)cn(C)c2=O)c1 [crystal form C of the compound of formula (II)]
–,–,slightly hygroscopic,0.5,COc1cc(OC)c(Cl)c(-c2nc(-c3nc(-c4cn(C)nc4C)cnc3N)cn(C)c2=O)c1 [crystal form E of the compound of formula (II)]
